Consider 12 compounds from patent US20240287070A1, “FUSED HETEROCYCLIC DERIVATIVES” (Janssen Sciences Ireland Unlimited Company, priority 2021, published 2024).

Data set [1] has as its system HBV (HepG2.117 cell line, inducibly HBV producing). Briefly: Anti-HBV activity, intracellular HBV DNA by real-time PCR in HepG2.117 cell line. In kind it is cell-based, hepatitis B virus. The note with it: HepG2.117 cells, 3 days of treatment. In short, it runs like this: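 HepG2.117 cells replicate HBV under Tet-off control, without doxycycline. After induction of replication, cells were treated with serially diluted compound for 3 days, and intracellular HBV DNA was then quantified by real-time PCR with an HBV-specific primer set and probe.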
In general terms: Quantitative PCR measures a nucleic acid by following its amplification.

The next data set relates to HepG2 or HepG2.117 cells. In words: Cytotoxicity, ATPlite Luminescence Assay. The data set is classed as cell-based, human. The conditions noted are these: 3-days incubation unless marked with *. In short, it runs like this: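 Cells were exposed to compounds for 3 or 4 days, after which viability was determined by ATP-based luminescence (ATPlite).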
A general note: ATP-based viability assays read luminescence as a measure of living cells.

The nature of data set [2]: Human liver microsome stability. In kind it is in vitro ADME. The conditions noted are these: 1 μM compound, NADPH 1 mM, 37° C., 0-60 min; for HLM Metabolism t1/2: pooled human liver microsomes 0.5 mg/mL; for half-life at 1 μM: human, pooled human liver microsomes, pH 7.4, pooled human liver microsomes 0.5 mg/mL, read-out: HLM Metabolism t1/2. In short, it runs like this: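 Single incubations with human liver microsomes started with 1 mM NADPH; samples taken at 0, 5, 10, 20, 40 and 60 min, quenched in acetonitrile (1:3). Cassette LC-MS analysis with internal standard; t½ derived from slope of ln peak-area ratio versus time (k = −gradient).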
A general note: Liver microsomes are vesicles of endoplasmic reticulum, rich in cytochrome P450 enzymes.

Molecules are shown by their SMILES.

By EC50 is commonly meant the concentration at which the effect is half-maximal. For orientation: CC50 means the concentration that lowers cell viability or growth by half. In turn, `C[C@@H]1Cc2nn3c(c2CN1C(=O)c1ccc(Cl)c(C(F)(F)F)c1)C(=O)N([C@H](C)c1ccc([S@]2(=O)=NCCC2)nc1)C[C@H]3C` (relative stereo) [Compound 30C, (3R,7R)-2-(4-chloro-3-(trifluoromethyl)benzoyl)-3,7-dimethyl-9-((R*)-1-(6-((S*)-1-oxido-4,5-dihydro-3H-116-isothiazol-1-yl)pyridin-3-yl)ethyl)-1,2,3,4,8,9-hexahydropyrido[4′,3′:3,4]pyrazolo[1,5-a]pyrazin-10(7H)-one] returned an EC50 in data set [1] of 0.31 µM. In addition, the CC50 in the data set with HepG2 or HepG2.117 cells was above 50 µM. Also, the “HLM Metabolism t1/2” value in data set [2] worked out at 0.685 h.

Take `C[C@@H]1Cc2nn3c(c2CN1C(=O)c1ccc(Cl)c(C(F)(F)F)c1)C(=O)N([C@@H](C)c1ccc([S@]2(=O)=NCCC2)nc1)C[C@H]3C` (relative stereo) [Compound 30D, (3R,7R)-2-(4-chloro-3-(trifluoromethyl)benzoyl)-3,7-dimethyl-9-((S*)-1-(6-((S*)-1-oxido-4,5-dihydro-3H-116-isothiazol-1-yl)pyridin-3-yl)ethyl)-1,2,3,4,8,9-hexahydropyrido[4′,3′:3,4]pyrazolo[1,5-a]pyrazin-10(7H)-one]: in data set [1], the midpoint of the response, the EC50, lay at 0.047 µM. Also, in the data set on HepG2 or HepG2.117 cells, the CC50 is above 50 µM. In addition, the “HLM Metabolism t1/2” value in data set [2] came to 0.255 h.

For the compound `CC(c1cc(F)c(=O)n(C)c1)N1C[C@@H](C)n2nc3c(c2C1=O)CN(C(=O)c1ccc(Cl)c(Cl)c1)[C@H](C)C3` (relative stereo) [Compound 45A, (3R,7R)-2-(3,4-dichlorobenzoyl)-9-((R*)-1-(5-fluoro-1-methyl-6-oxo-,6-dihydropyridin-3-yl)ethyl)-3,7-dimethyl-1,2,3,4,8,9-hexahydropyrido[4′,3′:3,4]pyrazolo [1,5-a]pyrazin-10(7H)-one], the 50% effective concentration (EC50) in data set [1] is 0.57 µM. In the data set with HepG2 or HepG2.117 cells, this compound displayed a cytotoxic concentration (CC50) above 50 µM. The “HLM Metabolism t1/2” value in data set [2] was above 3 h.

Take `CC(c1ccc(C(C)(C)O)nc1)N1C[C@@H](C)n2nc3c(c2C1=O)CN(C(=O)c1ccc(Cl)c(Cl)c1)[C@H](C)C3` (single isomer, unassigned) [Compound 2B, (3R,7R)-2-(3,4-dichlorobenzoyl)-9-((S*)-1-(6-(2-hydroxypropan-2-yl)pyridin-3-yl)ethyl)-3,7-dimethyl-1,2,3,4,8,9-hexahydropyrido[4′,3′:3,4]pyrazolo[1,5-a]pyrazin-10(7H)-one]: in data set [1], it took 0.015 µM to reach a half-maximal effect (EC50). The CC50 in the data set on HepG2 or HepG2.117 cells is above 50 µM. Besides, the “HLM Metabolism t1/2” value in data set [2] is 2.3 h.

The compound `CC(c1cnc(C2CC2)cn1)N1C[C@@H](C)n2nc3c(c2C1=O)CN(C(=O)c1ccc(Cl)c(Cl)c1)[C@H](C)C3` (single isomer, unassigned) [Compound 3A, (3R,7R)-9-((R*)-1-(5-cyclopropylpyrazin-2-yl)ethyl)-2-(3,4-dichlorobenzoyl)-3,7-dimethyl-1,2,3,4,8,9-hexahydropyrido[4′,3′:3,4]pyrazolo[1,5-a]pyrazin-10(7H)-one] came in with an EC50 in data set [1] of 0.068 µM. The same compound registered a CC50 in the data set on HepG2 or HepG2.117 cells of 33.7 µM. Moreover, the half-life at 1 μM in data set [2] was above 3 h.

In turn, `CC(c1cnc(C2CC2)cn1)N1C[C@@H](C)n2nc3c(c2C1=O)CN(C(=O)c1ccc(Cl)c(Cl)c1)[C@H](C)C3` (single isomer, unassigned) [Compound 3B, (3R,7R)-9-((S*)-1-(5-cyclopropylpyrazin-2-yl)ethyl)-2-(3,4-dichlorobenzoyl)-3,7-dimethyl-1,2,3,4,8,9-hexahydropyrido[4′,3′:3,4]pyrazolo[1,5-a]pyrazin-10(7H)-one] came in with an EC50 in data set [1] of 0.023 µM. Besides, the CC50 with HepG2 or HepG2.117 cells was found to be 16.4 µM. Moreover, the “HLM Metabolism t1/2” value in data set [2] stood at 2.22 h.

Take `Cc1ncc(C(C)N2C[C@@H](C)n3nc4c(c3C2=O)CN(C(=O)c2ccc(Cl)c(Cl)c2)[C@H](C)C4)cn1` (single isomer, unassigned) [Compound 4B, (3R,7R)-2-(3,4-dichlorobenzoyl)-3,7-dimethyl-9-((S*)-1-(2-methylpyrimidin-5-yl)ethyl)-1,2,3,4,8,9-hexahydropyrido[4′,3′:3,4]pyrazolo[1,5-a]pyrazin-10(7H)-one]: the EC50 in data set [1] was determined as 0.057 µM. The same compound showed a CC50 in the data set on HepG2 or HepG2.117 cells above 50 µM. Moreover, the “HLM Metabolism t1/2” value in data set [2] was above 3 h.

In data set [1], `CC(c1ccc(-n2cncn2)nc1)N1C[C@@H](C)n2nc3c(c2C1=O)CN(C(=O)c1ccc(Cl)c(Cl)c1)[C@H](C)C3` (single isomer, unassigned) [Compound 5B, (3R,7R)-9-((S*)-1-(6-(1H-1,2,4-triazol-1-yl)pyridin-3-yl)ethyl)-2-(3,4-dichlorobenzoyl)-3,7-dimethyl-1,2,3,4,8,9-hexahydropyrido[4′,3′:3,4]pyrazolo[1,5-a]pyrazin-10(7H)-one] returned an EC50 of 0.017 µM. In the data set with HepG2 or HepG2.117 cells, this compound showed a CC50 of 28.4 µM. Moreover, the “HLM Metabolism t1/2” value in data set [2] turned out to be 2.08 h.

In data set [1], `Cc1ccc(C(C)N2C[C@@H](C)n3nc4c(c3C2=O)CN(C(=O)c2ccc(Cl)c(Cl)c2)[C@H](C)C4)nn1` (single isomer, unassigned) [Compound 6B, (3R,7R)-2-(3,4-dichlorobenzoyl)-3,7-dimethyl-9-((S*)-1-(6-methylpyridazin-3-yl)ethyl)-1,2,3,4,8,9-hexahydropyrido[4′,3′:3,4]pyrazolo[1,5-a]pyrazin-10(7H)-one] gave an EC50 of 0.065 µM. In the data set with HepG2 or HepG2.117 cells, this compound registered a CC50 above 50 µM. Moreover, in data set [2], the “HLM Metabolism t1/2” value was above 3 h.

In turn, `CC(c1cnc(C(F)(F)F)cn1)N1C[C@@H](C)n2nc3c(c2C1=O)CN(C(=O)c1ccc(Cl)c(Cl)c1)[C@H](C)C3` (single isomer, unassigned) [Compound 7A, (3R,7R)-2-(3,4-dichlorobenzoyl)-3,7-dimethyl-9-((R*)-1-(5-(trifluoromethyl)pyrazin-2-yl)ethyl)-1,2,3,4,8,9-hexahydropyrido[4′,3′:3,4]pyrazolo[1,5-a]pyrazin-10(7H)-one] registered an EC50 in data set [1] of 0.52 µM. This compound came in with a CC50 in the data set on HepG2 or HepG2.117 cells of 44.8 µM. Moreover, the half-life at 1 μM in data set [2] is above 3 h.

With `CC(c1cnc(C(F)(F)F)cn1)N1C[C@@H](C)n2nc3c(c2C1=O)CN(C(=O)c1ccc(Cl)c(Cl)c1)[C@H](C)C3` (single isomer, unassigned) [Compound 7B, (3R,7R)-2-(3,4-dichlorobenzoyl)-3,7-dimethyl-9-((S*)-1-(5-(trifluoromethyl)pyrazin-2-yl)ethyl)-1,2,3,4,8,9-hexahydropyrido[4′,3′:3,4]pyrazolo[1,5-a]pyrazin-10(7H)-one], in data set [1], the response was half-maximal at 0.048 µM (EC50). The same compound returned a CC50 with HepG2 or HepG2.117 cells of 16.9 µM. In data set [2], the “HLM Metabolism t1/2” value is above 3 h.

On to `CC(c1ccc(C(C)(C)O)cc1)N1C[C@@H](C)n2nc3c(c2C1=O)CN(C(=O)c1ccc(Cl)c(Cl)c1)[C@H](C)C3` (single isomer, unassigned) [Compound 8B, (3R,7R)-2-(3,4-dichlorobenzoyl)-9-((S*)-1-(4-(2-hydroxypropan-2-yl)phenyl)ethyl)-3,7-dimethyl-1,2,3,4,8,9-hexahydropyrido[4′,3′:3,4]pyrazolo[1,5-a]pyrazin-10(7H)-one], for which, in data set [1], the EC50 worked out at 0.009 µM. The midpoint of cytotoxicity in the data set with HepG2 or HepG2.117 cells, the CC50, lay at 18.7 µM. In data set [2], the “HLM Metabolism t1/2” value was above 3 h.
